Assay results from patent US11518973B2, “Device and method for automated antibiotic susceptibility testing of gram-negative bacteria” (Yellow Sea Fisheries Research Institute Chinese Academy Of …, priority 2018, dated 2022).
≈ marks a conversion by molar mass, not a printed value.

Legend:
[1] = test system: Helicobacter pylori; experiment: Synergetic effect of levofloxacin and clarithromycin by contactless conductivity (ΔC) monitoring of bacterial growth; assay type: cell-based; details: indicates growth
Method: Step 3: Involved hardware, containers, tools, consumables and special liquid medium for Helicobacter pylori are sterilized with high temperature steam (121° C.), following by cooling down to room temperature in sterile vessels. The special liquid medium is purchased from Qingdao Hope Bio-Technology Co., Ltd (Qingdao, China).
Step 4: Levofloxacin solutions at concentrations of 0.2, 0.4, 0.6 and 0.8 g/l are prepared with ultrapure sterile water. Clarithromycin solutions at concentrations of 0.2, 0.4, 0.6 and 0.8 g/l are prepared with ethyl alcohol.
Step 5: Eight milliliter sterilized special liquid medium for Helicobacter pylori is transferred into a 10 ml centrifuge tube with a pipette.
Step 6: Twelve well-definite bacterial colonies are transferred from inoculating dish, on which Helicobacter pylori is cultured for 18-20 h, into the 10 ml centrifuge tube to prepare bacterial suspension.
Step 7: One-end-closed disposable PVC tubes in length of 12 cm are used as test tubes (5). […]

[2] = test system: Dysentery Bacillus; experiment: AST assay of levofloxacin by contactless conductivity (ΔC) monitoring of bacterial growth; assay type: cell-based, Dysentery Bacillus (Enterobacteriaceae strain)
Method: f. Judging the bacterial cells proliferation result based on the ΔCs at the final point. The ΔC is equal to or larger than 10.0 μS/cm, indicating a proliferation; and ΔC is equal to or lower than 1.0 μS/cm, indicating a completely inhibition. The MIC is defined as the lowest concentration of antibiotic resulting in complete inhibition of growth.
Step 1: According to FIG. 1, an automated device with eight test channels is set up. An HtPot50 dry incubator, which is produced by ABSON Scientific Instruments Co. (Hefei, China), is used as a temperature control unit. The used 0.22 μm disposable syringe filter is produced by Zhejiang Aijiren INC (Quzhou, China). The actuator electrode A, pick-up electrode L and pick-up electrode S are all copper cylinders in external diameter of 4.00 mm with 0.95 mm wall thickness. Their lengths are 16 mm, 16 mm and 10 mm, respectively. In every test channel the three electrodes are coaxially fixed with fixing plate. The distance between the pick-up electrode L and pick-up electrode S is 5 mm; and the distance between the pick-up electrode S and the actuator electrode A is 10 mm. All of the electrodes of the eight test channels are linked to an ER815 capacitively coupled contactless conductivity detector (eDAQ Ltd, Australia). The capacitively coupled contactless conductivity detector is controlled with TERA TERM software installed in E470c laptop computer (Legend Holdings Corporation, China).
Step 2: The temperature in the constant temperature chamber (6) is set to be 36° C. with a nonidentity ≤0.5° C. by clicking the button of temperature control.
Step 3: Involved hardware, containers, tools, consumables and special liquid medium for Enterobacteriaceae are sterilized with high temperature steam (121° C.), following by cooling down to room temperature in sterile vessels. In the special liquid medium the concentrations of beef powder, proteose peptone, lactose, No. 3 bile salt, sodium citrate, sodium thiosulfate and ferric citrate are 5.0, 5.0, 10.0, 8.5, 8.5, 8.5 and 1.0 g/L, respectively. […]

Compound	ΔC at the end of incubation ([1]; clarithromycin alone 0.10, 0.20, 0.30 and 0.40 mg/l (tubes No. 1-4, Step 12))	MIC ([2]; Bacillus, lowest concentration with complete inhibition of growth (ΔC not more than 1.0 μS/cm), 36° C., 21600 s)	ΔC at the end of incubation ([2]; levofloxacin 0.25, 0.50 and 1.00 mg/l (tubes No. 1-3), indicates growth)	ΔC at the end of incubation ([2]; levofloxacin 2.00, 3.00, 4.00, 5.00 and 6.00 mg/l (tubes No. 4-8), growth completely inhibited)	ΔC at the end of incubation ([1]; levofloxacin alone 0.10, 0.20, 0.30 and 0.40 mg/l (tubes No. 1-4))
CC[C@H]1OC(=O)[C@H](C)[C@@H](O[C@H]2C[C@@](C)(OC)[C@@H](O)[C@H](C)O2)[C@H](C)[C@@H](O[C@@H]2O[C@H](C)C[C@H](N(C)C)[C@H]2O)[C@](C)(OC)C[C@@H](C)C(=O)[C@H](C)[C@@H](O)[C@]1(C)O [clarithromycin]	≥ 14.0 μS/cm	–	–	–	–
C[C@H]1COc2c(N3CCN(C)CC3)c(F)cc3c(=O)c(C(=O)O)cn1c23 [levofloxacin]	–	2 µg/mL (≈ 5.53 µM)	≥ 18.0 μS/cm	not more than 1.0 μS/cm	≥ 22.0 μS/cm
